The results in this text go back to ChEMBL document CHEMBL5518249, “Structure-Guided Discovery and Preclinical Assessment of Novel (Thiophen-3-yl)aminopyrimidine Derivatives as Potent ERK1/2 Inhibitors” (J Med Chem, 2024).

The subject of test [1] is RKO. Briefly: cells. The following applies: Homo sapiens, 24 h.
Description: Antiproliferative activity against human RKO cells assessed as cell viability incubated for 24 hrs by methyl thiazolyl tetrazolium (MTT) assay
The test system of test [2] is MDA-MB-231. Nature of the test: cells. Particulars: Homo sapiens, MDA-MB-231, 24 h.
Description: Antiproliferative activity against human MDA-MB-231 cells assessed as cell viability incubated for 24 hrs by methyl thiazolyl tetrazolium (MTT) assay
Test [3] deals with MDA-MB-231. Nature of the test: animal or person. Format: functional, Homo sapiens. The following applies: Mus musculus, MDA-MB-231, po, 360 h, route ig, time 15 day, read-out: TGI.
Description: In vivo antitumor activity against human MDA-MB-231 cells xenografted in BALB/c mouse model assessed as tumor growth inhibition at 50 mg/kg, IG once daily for 15 days relative to control
Test [4] relates to RKO. Nature of the test: animal or person. The class given is functional, Homo sapiens. The following applies: Mus musculus, po, 360 h, route ig, time 15 day, read-out: TGI.
Description: In vivo antitumor activity against human RKO cells xenografted in BALB/c mouse model assessed as tumor growth inhibition at 50 mg/kg, IG once daily for 15 days relative to control
Test [5] addresses Mitogen-activated protein kinase 3 (Homo sapiens, UniProt P27361).
Description: Inhibition of ERK1 (unknown origin) assessed as luminescence in presence of ATP incubated for 90 mins by ADP-Glo kinase assay

Sequence of Mitogen-activated protein kinase 3 (P27361 whole entry): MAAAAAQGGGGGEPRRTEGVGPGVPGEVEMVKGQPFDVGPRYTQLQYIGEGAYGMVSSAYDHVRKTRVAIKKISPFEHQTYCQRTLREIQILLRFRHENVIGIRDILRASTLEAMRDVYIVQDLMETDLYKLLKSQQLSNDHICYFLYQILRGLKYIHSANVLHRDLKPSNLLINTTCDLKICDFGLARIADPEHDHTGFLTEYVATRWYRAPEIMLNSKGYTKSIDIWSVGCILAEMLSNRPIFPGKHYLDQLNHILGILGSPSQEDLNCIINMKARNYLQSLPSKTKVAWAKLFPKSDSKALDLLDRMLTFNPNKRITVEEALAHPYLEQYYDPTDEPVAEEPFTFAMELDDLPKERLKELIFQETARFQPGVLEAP

On to `Cn1nccc1Nc1ncc(Cl)c(-c2csc(C(=O)NCc3ccc(C(F)(F)F)cc3)c2)n1`, for which the IC50 was 41.2 µM in test [1] and 39.4 µM in test [2]. Regarding `Cn1nccc1Nc1ncc(Cl)c(-c2csc(C(=O)NCc3ccc(Cl)c(F)c3)c2)n1`, the IC50 in test [1] was 12.6 µM; in test [2] it was 11.5 µM.

For the compound `COc1cccc(CNC(=O)c2cc(-c3nc(Nc4ccnn4C)ncc3Cl)cs2)c1`, the values for the concentration for half-maximal inhibition (IC50) in test [1] and in test [2] were 33.4 µM and 29.4 µM, respectively.

On to `Cn1nccc1Nc1ncc(Cl)c(-c2csc(C(=O)NCc3ccc(F)cc3F)c2)n1`, for which the IC50 in test [1] and in test [2] was > 50 µM throughout.

Take `Cn1cc(Nc2ncc(Cl)c(-c3csc(C(=O)NCc4ccc(F)c(Cl)c4)c3)n2)c(C(F)(F)F)n1`: the IC50 in test [1] and in test [2] was > 50 µM throughout. Turning to `Cn1nccc1Nc1ncc(Cl)c(-c2csc(C(=O)NCc3cccc(Br)c3)c2)n1`, the IC50 in test [1] and in test [2] was > 50 µM throughout. Consider `CC(C)Nc1cc(-c2c[nH]c(C(=O)N[C@H](CO)c3cccc(Cl)c3)c2)c(Cl)cn1` [ULIXERTINIB], for which the results for the inhibition in vivo at 50 mg/kg in test [3] and in test [4] were 39.3% and 47.4%, respectively.

Regarding `Cn1nccc1Nc1ncc(Cl)c(-c2csc(C(=O)NCc3ccccc3F)c2)n1`, the IC50 in test [1] and in test [2] was > 50 µM each time.

Consider `Cn1cc(Nc2ncc(Cl)c(-c3csc(C(=O)NCc4ccc(F)c(Cl)c4)c3)n2)cn1`, for which the figures for the IC50 in test [1] and in test [2] were 20.2 µM and 36.6 µM, respectively.

As to `Cn1nccc1Nc1ncc(Cl)c(-c2csc(C(=O)NCc3ccc(F)cc3)c2)n1`, the IC50 is 14.5 µM in test [1] and 15.8 µM in test [2]. On the same counts, the results for `COc1ccccc1CNC(=O)c1cc(-c2nc(Nc3ccnn3C)ncc2Cl)cs1` are > 50 µM and > 50 µM. For `Cc1cnccc1Nc1ncc(Cl)c(-c2csc(C(=O)NCc3ccc(F)c(Cl)c3)c2)n1` the same measures were 5.41 µM and 6.26 µM. In the case of `Cn1nccc1Nc1ncc(Cl)c(-c2csc(C(=O)NC3CCOCC3)c2)n1`, it took 0.0254 µM to reach half-maximal inhibition in test [5] (IC50).

Consider `Cn1nccc1Nc1ncc(Cl)c(-c2csc(C(=O)NCc3cccc(C(F)(F)F)c3)c2)n1`, for which the IC50 in test [1] is 24.5 µM; in test [2] it was 21.1 µM.

Consider `Cn1nccc1Nc1ncc(Cl)c(-c2csc(C(=O)NCc3ccc(Cl)c(Cl)c3)c2)n1`, for which the 50% inhibitory concentration (IC50) in test [1] is 10.2 µM; in test [2], 12.4 µM. For `Cn1ccc(Nc2ncc(Cl)c(-c3csc(C(=O)NCc4ccc(F)c(Cl)c4)c3)n2)n1` the same measures were 49.4 µM and > 50 µM.

Turning to `Cn1nccc1Nc1ncc(Cl)c(-c2csc(C(=O)NCc3ccc(Cl)cc3F)c2)n1`, the values for the IC50 in test [1] and in test [2] were 39 µM and 48.2 µM, respectively. On to `Cn1nccc1Nc1ncc(Cl)c(-c2csc(C(=O)NCc3ccccc3Br)c2)n1`, for which the IC50 in test [1] and in test [2] was > 50 µM each time. Consider `Cn1nccc1Nc1ncc(Cl)c(-c2csc(C(=O)NCCN3CCOCC3)c2)n1`, for which the values for the concentration for half-maximal inhibition (IC50) in test [1] and in test [2] were 50.6 µM and 39.4 µM, respectively.
